One assay deals with C57BL/6JJcl mice. The experiment in a line: Test Example 7: Oral Glucose Tolerance Test (OGTT). It counts as in vivo. Here is the method:
After 30 minutes, a glucose solution was orally administered at a dose of 1 mg/g. Blood was collected from the orbits before the glucose administration and 30 minutes, 60 minutes and 120 minutes after the glucose administration. Blood-sugar levels were measured using ACCU-CHEK Aviva (Roche Diagnostics).
After the oral administration of the glucose solution to the mice fasted overnight, blood was collected over time, and blood-sugar levels were measured.
The correlation between the oligosaccharide chain structure and the activity was studied in mouse OGTT.

Assay [1] relates to db/db (BKS.Cg-+Lepr db/+Lepr db/Jcl) mice. The experiment in a line: Test Example 8: effect of lowering blood-sugar levels in diabetes model mice. Type of assay: in vivo. Conditions: 9 nmol/kg intraperitoneal. Here is the method:
The oligosaccharide chain added GLP-1 peptide prepared in Example 2, 3, 4, 21 or 23 or the GLP-1 prepared in Comparative Example 1 in a PBS solution (9 nmol/10 ml) was intraperitoneally administered at a dose of 10 ml/kg to BKS.Cg−+Lepr^db/+Lepr^db/Jcl mice (10 week old, male). Blood was collected from the orbits before the compound administration and 30 minutes, 60 minutes, 120 minutes, 180 minutes and 300 minutes after the compound administration. Blood-sugar levels were measured using ACCU-CHEK Aviva (Roche Diagnostics).
The db/db (BKS.Cg−+Lepr^db/+Lepr^db/Jcl) mice serving as diabetes model mice have a mutation in a receptor of leptin which is anorexigenic/energy metabolism-accelerating hormone and develops conditions such as obesity or hyperglycemia.
Blood-sugar levels were measured over time, and their effects of lowering blood-sugar levels were compared with that of the GLP-1 without oligosaccharide chain addition of Comparative Example 1.

[2] abbreviates: 9 nmol/kg intraperitoneal 30 minutes before glucose 1 mg/g oral.

Peptide text beside a SMILES is read from it. * marks the point of attachment. X1 = CC(=O)N[C@@H]1[C@@H](O)[C@H](O[C@@H]2O[C@H](CO)[C@@H](O[C@@H]3O[C@H](CO[C@H]4O[C@H](CO)[C@@H](O)[C@H](O)[C@@H]4O[C@@H]4O[C@H](CO)[C@@H](O[C@@H]5O[C@H](CO[C@]6(C(=O)O)C[C@H](O)[C@@H](NC(C)=O)[C@H]([C@H](O)[C@H](O)CO)O6)[C@H](O)[C@H](O)[C@H]5O)[C@H](O)[C@H]4NC(C)=O)[C@@H](O)[C@H](O[C@H]4O[C@H](CO)[C@@H](O)[C@H](O)[C@@H]4O[C@@H]4O[C@H](CO)[C@@H](O[C@@H]5O[C@H](CO[C@]6(C(=O)O)C[C@H](O)[C@@H](NC(C)=O)[C@H]([C@H](O)[C@H](O)CO)O6)[C@H](O)[C@H](O)[C@H]5O)[C@H](O)[C@H]4NC(C)=O)[C@@H]3O)[C@H](O)[C@H]2NC(C)=O)[C@@H](CO)O[C@H]1NC(=O)C*

On to `CC[C@H](C)[C@H](NC(=O)[C@H](Cc1ccccc1)NC(=O)[C@H](CCC(=O)O)NC(=O)[C@H](CCCCN)NC(=O)[C@H](C)NC(=O)[C@H](C)NC(=O)[C@H](CCC(N)=O)NC(=O)CNC(=O)[C@H](CCC(=O)O)NC(=O)[C@H](CSCC(=O)N[C@@H]1O[C@H](CO)[C@@H](O[C@@H]2O[C@H](CO)[C@@H](O[C@@H]3O[C@H](CO[C@H]4O[C@H](CO)[C@@H](O)[C@H](O)[C@@H]4O[C@@H]4O[C@H](CO)[C@@H](O[C@@H]5O[C@H](CO[C@]6(C(=O)O)C[C@H](O)[C@@H](NC(C)=O)[C@H]([C@H](O)[C@H](O)CO)O6)[C@H](O)[C@H](O)[C@H]5O)[C@H](O)[C@H]4NC(C)=O)[C@@H](O)[C@H](O[C@H]4O[C@H](CO)[C@@H](O)[C@H](O)[C@@H]4O[C@@H]4O[C@H](CO)[C@@H](O[C@@H]5O[C@H](CO[C@]6(C(=O)O)C[C@H](O)[C@@H](NC(C)=O)[C@H]([C@H](O)[C@H](O)CO)O6)[C@H](O)[C@H](O)[C@H]5O)[C@H](O)[C@H]4NC(C)=O)[C@@H]3O)[C@H](O)[C@H]2NC(C)=O)[C@H](O)[C@H]1NC(C)=O)NC(=O)[C@H](Cc1ccc(O)cc1)NC(=O)[C@H](CO)NC(=O)[C@H](CO)NC(=O)[C@@H](NC(=O)[C@H](CC(=O)O)NC(=O)[C@H](CO)NC(=O)[C@@H](NC(=O)[C@H](Cc1ccccc1)NC(=O)[C@@H](NC(=O)CNC(=O)[C@H](CCC(=O)O)NC(=O)[C@H](C)NC(=O)[C@@H](N)Cc1c[nH]cn1)[C@@H](C)O)[C@@H](C)O)C(C)C)C(=O)N[C@@H](C)C(=O)N[C@@H](Cc1c[nH]c2ccccc12)C(=O)N[C@@H](CC(C)C)C(=O)N[C@H](C(=O)N[C@@H](CCCCN)C(=O)NCC(=O)N[C@@H](CCCNC(=N)N)C(=O)NCC(=O)O)C(C)C` [Example 16, 20Cys GLP-1-disialo] (H-HAEGTFTSDVSSYC(X1)EGQAAKEFIAWLVKGRG-OH), for which the “effect of suppressing rise in blood-sugar levels in OGTT” value (“effect of suppressing rise” below) with C57BL/6JJcl mice (setting [2]) is on record as “strong effect of suppressing rise in blood-sugar levels”.
Consider `CC[C@H](C)[C@H](NC(=O)[C@H](Cc1ccccc1)NC(=O)[C@H](CCC(=O)O)NC(=O)[C@H](CCCCN)NC(=O)[C@H](C)NC(=O)[C@H](C)NC(=O)[C@H](CCC(N)=O)NC(=O)CNC(=O)[C@H](CCC(=O)O)NC(=O)[C@H](CC(C)C)NC(=O)[C@H](Cc1ccc(O)cc1)NC(=O)[C@H](CSCC(=O)N[C@@H]1O[C@H](CO)[C@@H](O[C@@H]2O[C@H](CO)[C@@H](O[C@@H]3O[C@H](CO[C@H]4O[C@H](CO)[C@@H](O)[C@H](O)[C@@H]4O[C@@H]4O[C@H](CO)[C@@H](O[C@@H]5O[C@H](CO[C@]6(C(=O)O)C[C@H](O)[C@@H](NC(C)=O)[C@H]([C@H](O)[C@H](O)CO)O6)[C@H](O)[C@H](O)[C@H]5O)[C@H](O)[C@H]4NC(C)=O)[C@@H](O)[C@H](O[C@H]4O[C@H](CO)[C@@H](O)[C@H](O)[C@@H]4O[C@@H]4O[C@H](CO)[C@@H](O[C@@H]5O[C@H](CO[C@]6(C(=O)O)C[C@H](O)[C@@H](NC(C)=O)[C@H]([C@H](O)[C@H](O)CO)O6)[C@H](O)[C@H](O)[C@H]5O)[C@H](O)[C@H]4NC(C)=O)[C@@H]3O)[C@H](O)[C@H]2NC(C)=O)[C@H](O)[C@H]1NC(C)=O)NC(=O)[C@H](CO)NC(=O)[C@@H](NC(=O)[C@H](CC(=O)O)NC(=O)[C@H](CO)NC(=O)[C@@H](NC(=O)[C@H](Cc1ccccc1)NC(=O)[C@@H](NC(=O)CNC(=O)[C@H](CCC(=O)O)NC(=O)[C@H](C)NC(=O)[C@@H](N)Cc1c[nH]cn1)[C@@H](C)O)[C@@H](C)O)C(C)C)C(=O)N[C@@H](C)C(=O)N[C@@H](Cc1c[nH]c2ccccc12)C(=O)N[C@@H](CC(C)C)C(=O)N[C@H](C(=O)N[C@@H](CCCCN)C(=O)NCC(=O)N[C@@H](CCCNC(=N)N)C(=O)NCC(=O)O)C(C)C` [Example 1, 18Cys GLP-1-disialo] (H-HAEGTFTSDVSC(X1)YLEGQAAKEFIAWLVKGRG-OH), for which, in the assay with C57BL/6JJcl mice (setting [2]), the “effect of suppressing rise” value was “strong effect of suppressing rise in blood-sugar levels”.
For the molecule `CC[C@H](C)[C@H](NC(=O)[C@H](Cc1ccccc1)NC(=O)[C@H](CCC(=O)O)NC(=O)[C@H](CSCC(=O)N[C@@H]1O[C@H](CO)[C@@H](O[C@@H]2O[C@H](CO)[C@@H](O[C@@H]3O[C@H](CO[C@H]4O[C@H](CO)[C@@H](O)[C@H](O)[C@@H]4O[C@@H]4O[C@H](CO)[C@@H](O[C@@H]5O[C@H](CO[C@]6(C(=O)O)C[C@H](O)[C@@H](NC(C)=O)[C@H]([C@H](O)[C@H](O)CO)O6)[C@H](O)[C@H](O)[C@H]5O)[C@H](O)[C@H]4NC(C)=O)[C@@H](O)[C@H](O[C@H]4O[C@H](CO)[C@@H](O)[C@H](O)[C@@H]4O[C@@H]4O[C@H](CO)[C@@H](O[C@@H]5O[C@H](CO[C@]6(C(=O)O)C[C@H](O)[C@@H](NC(C)=O)[C@H]([C@H](O)[C@H](O)CO)O6)[C@H](O)[C@H](O)[C@H]5O)[C@H](O)[C@H]4NC(C)=O)[C@@H]3O)[C@H](O)[C@H]2NC(C)=O)[C@H](O)[C@H]1NC(C)=O)NC(=O)[C@H](C)NC(=O)[C@H](C)NC(=O)[C@H](CCC(N)=O)NC(=O)CNC(=O)[C@H](CCC(=O)O)NC(=O)[C@H](CC(C)C)NC(=O)[C@H](Cc1ccc(O)cc1)NC(=O)[C@H](CO)NC(=O)[C@H](CO)NC(=O)[C@@H](NC(=O)[C@H](CC(=O)O)NC(=O)[C@H](CO)NC(=O)[C@@H](NC(=O)[C@H](Cc1ccccc1)NC(=O)[C@@H](NC(=O)CNC(=O)[C@H](CCC(=O)O)NC(=O)[C@H](C)NC(=O)[C@@H](N)Cc1c[nH]cn1)[C@@H](C)O)[C@@H](C)O)C(C)C)C(=O)N[C@@H](C)C(=O)N[C@@H](Cc1c[nH]c2ccccc12)C(=O)N[C@@H](CC(C)C)C(=O)N[C@H](C(=O)N[C@@H](CCCCN)C(=O)NCC(=O)N[C@@H](CCCNC(=N)N)C(=O)NCC(=O)O)C(C)C` [Example 3, 26Cys GLP-1-disialo], in the assay on C57BL/6JJcl mice (0.9 nmol/kg intraperitoneal), the “efficacy relative to 30Cys GLP-1-disialo and 36Cys GLP-1-disialo at the same dose in OGTT” value is recorded as “about ½”. Further, the “effect of suppressing rise” value in the assay with C57BL/6JJcl mice (setting [2]) was “strong effect of suppressing rise in blood-sugar levels”. Moreover, in the assay on C57BL/6JJcl mice (doses 0.9 nmol/kg and 0.09 nmol/kg intraperitoneal), the “dose dependence of activity of suppressing rise in blood-sugar levels in OGTT” value is reported as “dose-dependent activity of suppressing rise in blood-sugar levels”. Further, the “effect of lowering blood-sugar levels in db/db mice” value in assay [1] (10-week-old male mice) is “strong effect of lowering blood-sugar levels”. The “durability of effect of lowering blood-sugar levels in db/db mice” value in assay [1] (up to 300 minutes) is given as “effects of lowering blood-sugar levels were slightly weakened over time”.
As for `CC[C@H](C)[C@H](NC(=O)[C@H](Cc1ccccc1)NC(=O)[C@H](CCC(=O)O)NC(=O)[C@H](CCCCN)NC(=O)[C@H](C)NC(=O)[C@H](C)NC(=O)[C@H](CCC(N)=O)NC(=O)CNC(=O)[C@H](CCC(=O)O)NC(=O)[C@H](CC(C)C)NC(=O)[C@H](Cc1ccc(O)cc1)NC(=O)[C@H](CSCC(=O)N[C@@H]1O[C@H](CO)[C@@H](O[C@@H]2O[C@H](CO)[C@@H](O[C@@H]3O[C@H](CO[C@H]4O[C@H](CO)[C@@H](O)[C@H](O)[C@@H]4O[C@@H]4O[C@H](CO)[C@@H](O[C@@H]5O[C@H](CO[C@]6(C(=O)O)C[C@H](O)[C@@H](NC(C)=O)[C@H]([C@H](O)[C@H](O)CO)O6)[C@H](O)[C@H](O)[C@H]5O)[C@H](O)[C@H]4NC(C)=O)[C@@H](O)[C@H](O[C@H]4O[C@H](CO)[C@@H](O)[C@H](O)[C@@H]4O[C@@H]4O[C@H](CO)[C@@H](O[C@@H]5O[C@H](CO[C@]6(C(=O)O)C[C@H](O)[C@@H](NC(C)=O)[C@H]([C@H](O)[C@H](O)CO)O6)[C@H](O)[C@H](O)[C@H]5O)[C@H](O)[C@H]4NC(C)=O)[C@@H]3O)[C@H](O)[C@H]2NC(C)=O)[C@H](O)[C@H]1NC(C)=O)NC(=O)[C@H](CO)NC(=O)[C@@H](NC(=O)[C@H](CC(=O)O)NC(=O)[C@H](CO)NC(=O)[C@@H](NC(=O)[C@H](Cc1ccccc1)NC(=O)[C@@H](NC(=O)CNC(=O)[C@H](CCC(=O)O)NC(=O)[C@H](C)NC(=O)[C@@H](N)Cc1c[nH]cn1)[C@@H](C)O)[C@@H](C)O)C(C)C)C(=O)N[C@@H](C)C(=O)N[C@@H](Cc1c[nH]c2ccccc12)C(=O)N[C@@H](CC(C)C)C(=O)N[C@H](C(=O)N[C@@H](CCCCN)C(=O)NCC(=O)N[C@@H](CSCC(=O)N[C@@H]1O[C@H](CO)[C@@H](O[C@@H]2O[C@H](CO)[C@@H](O[C@@H]3O[C@H](CO[C@H]4O[C@H](CO)[C@@H](O)[C@H](O)[C@@H]4O[C@@H]4O[C@H](CO)[C@@H](O[C@@H]5O[C@H](CO[C@]6(C(=O)O)C[C@H](O)[C@@H](NC(C)=O)[C@H]([C@H](O)[C@H](O)CO)O6)[C@H](O)[C@H](O)[C@H]5O)[C@H](O)[C@H]4NC(C)=O)[C@@H](O)[C@H](O[C@H]4O[C@H](CO)[C@@H](O)[C@H](O)[C@@H]4O[C@@H]4O[C@H](CO)[C@@H](O[C@@H]5O[C@H](CO[C@]6(C(=O)O)C[C@H](O)[C@@H](NC(C)=O)[C@H]([C@H](O)[C@H](O)CO)O6)[C@H](O)[C@H](O)[C@H]5O)[C@H](O)[C@H]4NC(C)=O)[C@@H]3O)[C@H](O)[C@H]2NC(C)=O)[C@H](O)[C@H]1NC(C)=O)C(=O)NCC(=O)O)C(C)C` [Example 49, 18,36Cys GLP-1-disialo], the “effect of suppressing rise” value in the assay with C57BL/6JJcl mice (0.9 nmol/kg intraperitoneal) was “almost equivalent to that of the GLP-1 at a dose of 9 nmol/kg”; with C57BL/6JJcl mice (setting [2]), “effect almost equivalent to that of the 36Cys GLP-1-disialo”. Moreover, the “activity of suppressing rise in blood-sugar levels in OGTT relative to GLP-1 (times)” value with C57BL/6JJcl mice (from doses giving equivalent effect, GLP-1 at 9 nmol/kg) was “about 10 times”.

The record behind these values is US7985731B2, “Sugar chain added GLP-1 peptide” (Otsuka Chemical Holdings Co., Ltd., priority 2007, dated 2011).
